Measured values taken from patent publication US12098184B2, “G protein-coupled receptor (GPCR) ligand assay” (REGENTS OF THE UNIVERSITY OF MINNESOTA, priority 2017, dated 2024).
Bridge positions count the residues as written; N and C are the ends. Ends that are not written are not given here.

Experiments:
α1AR-Ipep sensor = conditions: bicine-mediated GPMVs, 100 μM
V1R-Qpep sensor = assay: FRET measurement with GPMV-V1R-Qpep sensors; type: biochemical; conditions: bicine-mediated GPMVs, 100 nM

CNC[C@H](O)c1ccc(O)c(O)c1 [epinephrine]
ΔFRET level with full agonist (α1AR-Ipep sensor): comparable to those obtained in the other experiments described herein

[Arg^8]vasopressin (CYFQNCPRG-NH2; disulfide 1-6) [[Arg^8]vasopressin (AVP), full agonist of V1R]
ΔFRET level with full agonist (V1R-Qpep sensor): comparable to those obtained in the other experiments described herein
